Laboratory results from ChEMBL document CHEMBL1201862, “PubChem BioAssay data set” (2004).
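Step 1: Grow cells in 96-well plates. Step 2: Expose to compound for 48 hours at 5 concentrations. Step 3: Interpolate endpoints linearly; if unreached, use highest concentration. GI50 = concentration required for 50% inhibition of growth.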 Active and inactive are the calls of the source. Cut-off read from the data, not from the text of the source: active = GI50 up to about 1.1 µM and inactive = higher.

Key:
Assay in all cases: NCI anticancer screen, dose series, 48 h
[1] = system: NCI-H23
[2] = system: OVCAR-5
[3] = system: SK-OV-3
[4] = system: HT-29
[5] = system: Malme-3M
[6] = system: HOP-62
[7] = system: TK-10
[8] = system: UO-31
[9] = system: HCT-116
[10] = system: SK-MEL-5
[11] = system: MOLT-4
[12] = system: SNB-75
[13] = system: OVCAR-3
[14] = system: MDA-MB-435
[15] = system: SK-MEL-28
[16] = system: EKVX
[17] = system: SF-539
[18] = system: NCI-H226
[19] = system: UACC-62
[20] = system: KM12

| SMILES | GI50 [1] | GI50 [2] | GI50 [3] | GI50 [4] | GI50 [5] | GI50 [6] | GI50 [7] | GI50 [8] | GI50 [9] | GI50 [10] | GI50 [11] | GI50 [12] | GI50 [13] | GI50 [14] | GI50 [15] | GI50 [16] | GI50 [17] | GI50 [18] | GI50 [19] | GI50 [20] |
| --- | --- | --- | --- | --- | --- | --- | --- | --- | --- | --- | --- | --- | --- | --- | --- | --- | --- | --- | --- | --- |
| CC1C=CN(N(C)C)C2=C1C(=O)c1cnccc1C2=O (stereo not given) | 0.261 µM (active) | 1.37 µM (inactive) | 0.682 µM (active) | 0.617 µM (active) | 0.334 µM (active) | 0.349 µM (active) | 0.513 µM (active) | 0.167 µM (active) | 0.306 µM (active) | 0.274 µM (active) | 1.76 µM (inactive) | 0.315 µM (active) | 0.792 µM (active) | 0.186 µM (active) | 0.453 µM (active) | 0.59 µM (active) | 0.293 µM (active) | 0.508 µM (active) | 0.167 µM (active) | 1.24 µM (inactive) |
| Cc1nc2cc(/N=N/c3c(C)noc3C)ccc2[nH]1 | 35.3 µM (inactive) | 28 µM (inactive) | 18.9 µM (inactive) | 17.7 µM (inactive) | 25.9 µM (inactive) | 27.1 µM (inactive) | 22.9 µM (inactive) | 13.9 µM (inactive) | 18.3 µM (inactive) | 12.4 µM (inactive) | 17.9 µM (inactive) | 5.28 µM (inactive) | 18.1 µM (inactive) | 21.3 µM (inactive) | 17.6 µM (inactive) | 18.2 µM (inactive) | 17.6 µM (inactive) | > 100 µM (inactive) | 27 µM (inactive) | 49.8 µM (inactive) |
| O=[N+]([O-])C(=C/c1cccc2ccccc12)/C(=C\c1cccc2ccccc12)[N+](=O)[O-] | 1.98 µM (inactive) | 3.66 µM (inactive) | 6.08 µM (inactive) | 2.21 µM (inactive) | 2.07 µM (inactive) | 2.74 µM (inactive) | 2.17 µM (inactive) | 1.85 µM (inactive) | 2.49 µM (inactive) | 2.9 µM (inactive) | 0.984 µM (active) | 6.95 µM (inactive) | 4.02 µM (inactive) | 2.28 µM (inactive) | 1.83 µM (inactive) | 3.4 µM (inactive) | 2.21 µM (inactive) | 4.85 µM (inactive) | 1.71 µM (inactive) | 4.23 µM (inactive) |
| CCCCCC(/C=C/[C@@H]1CC(=O)C[C@H]1O[Si](C)(C)C(C)(C)C)OCOCCOC (stereo not given in full) | 3.56 µM (inactive) | 10 µM (inactive) | 17 µM (inactive) | 3.48 µM (inactive) | 2.35 µM (inactive) | 15.5 µM (inactive) | 12.9 µM (inactive) | 2.42 µM (inactive) | 2.99 µM (inactive) | 3.33 µM (inactive) | 1.75 µM (inactive) | 2.19 µM (inactive) | 3.93 µM (inactive) | 2.02 µM (inactive) | 3.08 µM (inactive) | 6.31 µM (inactive) | 2.32 µM (inactive) | 5.48 µM (inactive) | 2.7 µM (inactive) | 3 µM (inactive) |
| O=C(OCCN=C1c2ccccc2CCc2ccccc21)c1ccccc1 | > 100 µM (inactive) | > 100 µM (inactive) | > 100 µM (inactive) | > 100 µM (inactive) | > 100 µM (inactive) | > 100 µM (inactive) | > 100 µM (inactive) | > 100 µM (inactive) | > 100 µM (inactive) | > 100 µM (inactive) | 15.2 µM (inactive) | > 100 µM (inactive) | > 100 µM (inactive) | > 100 µM (inactive) | > 100 µM (inactive) | > 100 µM (inactive) | > 100 µM (inactive) | 53.1 µM (inactive) | > 100 µM (inactive) | > 100 µM (inactive) |
